Experimental data taken from patent publication US6610697B1, “Substituted 2-aryl-3-(heteroaryl)-imidazo[1,2-a]pyrimidines, and related pharmaceutical compositions and methods” (Ortho-McNeil Pharmaceutical, Inc., priority 1999, dated 2003).

Legend:
[1] = test system: LPS-induced TNF-α production; experiment: In vivo rodent assay, LPS-induced TNF-α production; settings: Mus musculus; BALB/cJ female mice, oral 10 mg/kg, LPS 1 mg/kg i.p. 30 min after dosing, serum TNF-α 1 h later
Description: Mice (BALB/cJ females, Jackson Laboratories) were fasted for 30 min. prior to oral dosing with 5-10 mL/kg of a test compound at 5-50 mg/kg. Thirty minutes after dosing, the animals were injected intraperitoneally with LPS at 1 mg/kg and returned to their cages for 1 h. Animals were anesthetized by CO2, exsanguinated by cardiac puncture and whole blood collected (0.1-0.7 mL). The blood was allowed to clot and serum was transferred to a centrifuge tube. This sample was centrifuged, and serum was collected, aliquoted, and frozen at −80° C. Samples were tested by commercial ELISA's for TNF-α (Endogen for mouse TNF-α). The % inhibition of the test compounds was calculated by the following formula: % inhibition=[1-(sample-BKG)/(CTRL-BKG)]×100.

TNF-α = experiment: PBMC whole cell assay (LPS/PBMC, TNF-α ELISA); format: cell-based; settings: human PBMC, LPS stimulation overnight
Description: Representative compounds of the present invention were tested in an in vitro whole cell assay using peripheral blood mononuclear cells (“PBMC's”) which were obtained from human blood as follows. Freshly obtained venous blood was anticoagulated with heparin, diluted with an equal volume of phosphate buffered saline (“PBS”) and placed in a sterile tube or other container. Aliquots (30 mL) of this mixture were transferred to centrifuge tubes which were underlaid with Ficoll-Hypaque (15 mL). The prepared tubes were centrifuged at 400×g without braking for 30 min at room temperature. Approximately ½ to ⅔ of the platelet layer above the mononuclear cell band was removed with a pipette. The majority of the mononuclear cell layer was carefully removed using a pipette and these PBMC's were diluted with PBS and spun at 600×g for 15 min. The resulting PBMC's were washed with another portion of PBS and spun at 400×g for 10 min at room temperature. The recovered pellets were diluted in low endotoxin RPMI/1% FCS culture medium and gave a cell concentration of 0.5-2.0×10^6 PMBC/mL. A small volume of the suspension was removed for counting on a hemocytometer and the remaining preparation was centrifuged at 200×g for 15 min at room temperature. The recovered pelleted PMBC's were re-suspended in RPMI/1% FCS to a concentration of 1.67×10^6/mL.
To run the assay, the PBMC suspension (180 μL) was transferred to duplicate wells of a 96-well flat-bottom microtiter plate and incubated for 1 h at 37° C. A solution of test compound (10 μL, prepared at 20×the desired final concentration) was added to each well and the plate was incubated for 1 h at 37° C. A solution (10 μL) of LPS in RPMI/1% FCS (200 ng/mL) was added and the wells were incubated overnight at 37° C. The supernate (100 μL) was removed from each well and diluted with RPMI/1% FCS (400 μL). The samples were analyzed for TNF-α using a commercial ELISA kit (Genzyme).

Row | SMILES | inhibition in vivo at 10 mg/kg [1] | IC50 (TNF-α)
1 | Nc1ccn2c(-c3ccncc3)c(-c3ccc(F)cc3)nc2n1 [Compound 1, 2-(4-fluorophenyl)-3-(4-pyridinyl)-imidazo[1,2-a]pyrimidin-7-amine] | 100% | 49 nM
2 | Nc1ccn2c(-c3ccncc3)c(-c3cccc(F)c3)nc2n1 [Compound 2, 2-(3-fluorophenyl)-3-(4-pyridinyl)-imidazo[1,2-a]pyrimidin-7-amine] | 100% | 55 nM
3 | Nc1ccn2c(-c3ccnc4ccccc34)c(-c3ccc(F)cc3)nc2n1 [Compound 3, 2-(4-fluorophenyl)-3-(4-quinolinyl)-imidazo[1,2-a]pyrimidin-7-amine] | 26% | 333 nM
4 | Nc1ccn2c(-c3ccncc3)c(-c3ccc(F)c(Cl)c3)nc2n1 [Compound 4, 2-(3-chloro-4-fluorophenyl)-3-(4-pyridinyl)-imidazo[1,2-a]pyrimidin-7-amine] | 100% | 21 nM
5 | Nc1ccn2c(-c3ccncc3)c(-c3ccccc3)nc2n1 [Compound 5, 2-phenyl-3-(4-pyridinyl)-imidazo[1,2-a]pyrimidin-7-amine] | 100% | 55 nM
6 | Nc1ccn2c(-c3ccnc(NCc4ccccc4)c3)c(-c3ccc(F)cc3)nc2n1 [Compound 6, 2-(4-fluorophenyl)-3-[2-[(phenylmethyl)amino]4-pyridinyl]-imidazo[1,2-a]pyrimidin-7-amine] | 42% | 6 nM
7 | Nc1ccn2c(-c3ccncc3)c(-c3cccc(C(F)(F)F)c3)nc2n1 [Compound 7, 3-(4-pyridinyl)-2-[3-(trifluoromethyl)phenyl]-imidazo[1,2-a]pyrimidin-7-amine] | 99% | 35 nM
8 | Nc1ccn2c(-c3ccnc(NCc4ccccc4)c3)c(-c3cccc(C(F)(F)F)c3)nc2n1 [Compound 8, 3-[2-[(phenylmethyl)amino]4-pyridinyl]-2-[3-(trifluoromethyl)phenyl]-imidazo[1,2-a]pyrimidin-7-amine] | 19% | 4 nM
9 | C[C@H](Nc1nccc(-c2c(-c3cccc(C(F)(F)F)c3)nc3nc(N)ccn23)n1)c1ccccc1 [Compound 9, 3-[2-[[(1S)-1-Phenylethyl]amino]4-pyrimidinyl]-2-[3-(trifluoromethyl)phenyl]imidazo[1,2-a]pyrimidin-7-amine] | 97% | 0.5 nM
10 | CSc1nccc(-c2c(-c3ccc(F)cc3)nc3nc(N)ccn23)n1 [Compound 10, 2-(4-Fluorophenyl)-3-[2-(methylthio)-4-pyrimidinyl]imidazo[1,2-a]pyrimidin-7-amine] | 68% | 37 nM
11 | CSc1nccc(-c2c(-c3cccc(C(F)(F)F)c3)nc3nc(N)ccn23)n1 [Compound 11, 3-[2-(Methylthio)-4-pyrimidinyl]-2-[3-(trifluoromethyl)phenyl]imidazo[1,2-a]pyrimidin-7-amine] | 38% | 27 nM
12 | CSc1nccc(-c2c(-c3cccc(F)c3)nc3nc(N)ccn23)n1 [Compound 12, 2-(3-Fluorophenyl)-3-[2-(methylthio)-4-pyrimidinyl]imidazo[1,2-a]pyrimidin-7-amine] | 51% | 10 nM
13 | Nc1ccn2c(-c3ccncn3)c(-c3cccc(C(F)(F)F)c3)nc2n1 [Compound 13, 3-(4-Pyrimidinyl)-2-[3-(trifluoromethyl)phenyl]imidazo[1,2-a]pyrimidin-7-amine] | 85% | 278 nM
14 | Nc1ccn2c(-c3ccnc(N4CCCCC4)n3)c(-c3ccccc3)nc2n1 [Compound 14, 2-Phenyl-3-[2-(1-piperidinyl)-4-pyrimidinyl]imidazo[1,2-a]pyrimidin-7-amine] | 63% | 8 nM
15 | CSc1nccc(-c2c(-c3ccccc3)nc3nc(N)ccn23)n1 [Compound 15, 3-[2-(Methylthio)-4-pyrimidinyl]-2-phenylimidazo[1,2-a]pyrimidin-7-amine] | 23% | 28 nM
16 | Nc1ccn2c(-c3ccncn3)c(-c3ccccc3)nc2n1 [Compound 16, 2-Phenyl-3-(4-pyrimidinyl)imidazo[1,2-a]pyrimidin-7-amine] | 73% | 304 nM
17 | CS(=O)(=O)c1nccc(-c2c(-c3ccccc3)nc3nc(N)ccn23)n1 [Compound 17, 3-[2-(Methylsulfonyl)-4-pyrimidinyl]-2-phenylimidazo [1,2-a]pyrimidin-7-amine] |  | 3410 nM
18 | CS(=O)(=O)c1nccc(-c2c(-c3cccc(C(F)(F)F)c3)nc3nc(N)ccn23)n1 [Compound 18, 3-[2-(Methylsulfonyl)-4-pyrimidinyl]-2-[3-(trifluoromethyl)phenyl]imidazo[1,2-a]pyrimidin-7-amine] | 10% | 520 nM
19 | C[C@H](Nc1nccc(-c2c(-c3ccccc3)nc3nc(N)ccn23)n1)c1ccccc1 [Compound 19, 2-Phenyl-3-[2-[[(1S)-1-phenylethyl]amino]4-pyrimidinyl]imidazo[1,2-a]pyrimidin-7-amine] | 100% | 0.4 nM
20 | COc1ccc(CNc2nccc(-c3c(-c4ccccc4)nc4nc(N)ccn34)n2)cc1 [Compound 20, 3-[[[(4-Methoxyphenyl)methyl]amino]-4-pyrimidinyl]-2-phenylimidazo[1,2-a]pyrimidin-7-amine] |  | 14 nM
21 | C[C@H](Nc1nccc(-c2c(-c3ccc(F)cc3)nc3nc(N)ccn23)n1)C1CCCCC1 [Compound 22, 3-[2-[[(1S)-1-Cyclohexylethyl]amino]-4-pyrimidinyl]-2-(4-fluorophenyl)imidazo[1,2-a]pyrimidin-7-amine] | 74% | 1 nM
22 | COc1nccc(-c2c(-c3ccccc3)nc3nc(N)ccn23)n1 [Compound 23, 3-(2-Methoxy-4-pyrimidinyl)-2-phenylimidazo[1,2-a]pyrimidin-7-amine] | 87% | 90 nM
23 | Nc1ccn2c(-c3ccncn3)c(-c3ccc(F)cc3)nc2n1 [Compound 24, 2-(4-Fluorophenyl)-3-(4-pyrimidinyl)imidazo[1,2-a]pyrimidin-7-amine] | 91% | 199 nM
24 | Nc1ccn2c(-c3ccncc3)c(-c3cccc(Cl)c3)nc2n1 [Compound 25, 2-(3-Chlorophenyl)-3-(4-pyridinyl)imidazo[1,2-a]pyrimidin-7-amine] | 47% | 162 nM
